{"source": "paper PMC11576293", "about": "“New series of 4,6-diaryl pyrimidines: facile synthesis and antiproliferative activity as dual EGFR/VEGFR-2 inhibitors” (Frontiers in Chemistry, 2024)", "key": {"Bax": {"tested_on": "Bax", "test": "Bax activation assay", "assay_type": "cell-based, human", "conditions": "for Bax Conc: A-549 cancer cells", "procedure": "4.2.7. Bax activation assay\nBring all reagents, except the human Bax-α Standard, to room temperature for at least 30 minutes prior to opening. The human Bax-α Standard solution should not be left at room temperature for more than 10 minutes. All standards, controls and samples should be run in duplicate. Refer to the Assay Layout Sheet to determine the number of wells to be used and put any remaining wells with the desiccant back into the pouch and seal the ziploc. Store unused wells at 4 °C. Pipet 100 μL of Assay Buffer into the S0 (0 pg/mL standard) wells. Pipet 100 μL of Standards #1 through #6 into the appropriate wells. Pipet 100 μL of the Samples into the appropriate wells. Tap the plate gently to mix the contents. Seal the plate and incubate at room temperature on a plate shaker for 1 hour at ~500 rpm. Empty the contents of the wells and wash by adding 400 μL of wash solution to every well. Repeat the wash 4 more times for a total of 5 washes. After the final wash, empty or aspirate the wells and firmly tap the plate on a lint free paper towel to remove any remaining wash buffer.\nPipet 100 μL of yellow Antibody into each well, except the Blank. Seal the plate and incubate at room temperature on a plate shaker for 1 hour at ~500 rpm. Empty the contents of the wells and wash by adding 400 μL of wash solution to every well. Repeat the wash 4 more times for a total of 5 washes. After the final wash, empty or aspirate the wells and firmly tap the plate on a lint free paper towel to remove any remaining wash buffer. Add 100 μL of blue Conjugate to each well, except the Blank. Seal the plate and incubate at room temperature on a plate shaker for 30 minutes […]\nPipet 100 μL of Substrate Solution into each well. Incubate for 30 minutes at room temperature on a plate shaker at ~500 rpm. Pipet 100 μL Stop Solution to each well. Blank the plate reader against the Blank wells, read the optical density at 450 nm. Calculate the average net Optical Density (OD) bound for each standard and sample by subtracting the average Blank OD from the average OD for each standard and sample. Using linear graph paper, plot the Average Net OD for each standard versus Bax concentration in each standard. Approximate a straight line through the points.\nThe concentration of Bax in the unknowns can be determined by interpolation. […]"}, "A-549 cancer cells": {"tested_on": "A-549 cancer cells", "test": "Wound healing assay (migration, wound closure)", "assay_type": "cell-based, human", "conditions": "A-549 cells", "procedure": "Wound healing assay is a simple, reproducible, and non-expensive method to study cancer cell migration in vitro ([Rodriguez et al., 2005]). We investigated the wound-healing activities of compounds 22 and 29 in A-549 cancer cells. […] Furthermore, the wound closure percentage achieved 100% after 72 h of treatment with a compound 22, whereas it reached only 80% with a compound 29."}, "[1]": {"tested_on": "MCF-7 Breast Adenocarcinoma cell line", "test": "Wound healing assay (supplement, Table S3)", "assay_type": "cell-based", "conditions": "for Migration rate: Rm=Wi−Wf / t", "procedure": "4.3. Wound Healing Assay of MCF-7 Breast Adenocarcinoma\nMCF-7 Breast Adenocarcinoma cell line was obtained from Nawah Scientific Inc., (Mokatam, Cairo, Egypt). Cells were maintained in DMEM media supplemented with […] of streptomycin, 100 units/mL of penicillin and 10% of heat-inactivated fetal bovine serum in humidified, 5% (v/v) CO2 atmosphere at 37 °C.\n4.3.2. Wound healing assay\nCells were plated at a density of 2x10^5/well onto a coated 12-well plate for scratch wound assay and cultured overnight in 5% FBS-DMEM at 37 °C and 5% CO2. On the next day, horizontal scratches were introduced into the confluent monolayer; the plate was washed thoroughly with PBS, control wells were replenished with fresh medium while drug wells were treated with fresh media containing drug 26 and 27. Images were taken using an inverted microscope at the indicated time intervals. The plate was incubated at 37 °C and 5% CO2 in-between time points. The acquired […]\n4.4. Wound Healing Assay Calculations\nWound width can be calculated as the average distance between the edges of the scratches; the wound width decreases as cell migration is induced. The results of compounds 26 and 27 were […]\nMigration rate is calculated by dividing the time spent in migration according to the following"}}, "note": "“And” between values parts separate entries of the source, which are not always exact repeats. Equal values may be shown once."}
{"smiles": "COc1ccc(CSc2nc(-c3ccc(OC)cc3)cc(-c3cccc(OC)c3)n2)cc1", "note": "[Compound 22, 2-(4-Methoxybenzylthio)-6-(3-methoxyphenyl)-4-(4-methoxyphenyl)pyrimidine]", "values": [{"measurement": "Bax Conc", "setting": "Bax", "result": "294 pg/mL and 294 ± 6 pg/mL"}, {"measurement": "Wound closure % 24 h", "setting": "A-549 cancer cells", "result": 25, "unit": "%"}, {"measurement": "Wound closure % 48 h", "setting": "A-549 cancer cells", "result": 50, "unit": "%"}, {"measurement": "Wound closure % 72 h", "setting": "A-549 cancer cells", "result": 100, "unit": "%"}]}
{"smiles": "COc1ccc(-c2cc(-c3ccc(Cl)cc3)nc(SC(C)C)n2)cc1OC", "note": "[Compound 26, 4-(4-Chlorophenyl)-2-(isopropylthio)-6-(3,4-dimethoxyphenyl)pyrimidine]", "values": [{"measurement": "Wound Width ±SD 0 h", "setting": "[1]", "result": "1.01±0.02", "unit": "mm"}, {"measurement": "Wound Width ±SD 24 h", "setting": "[1]", "result": "0.76±0.04", "unit": "mm"}, {"measurement": "Wound closure % 24 h", "setting": "[1]", "result": 25, "unit": "%"}, {"measurement": "Wound Width ±SD 48 h", "setting": "[1]", "result": "0.51±0.03", "unit": "mm"}, {"measurement": "Wound closure % 48 h", "setting": "[1]", "result": 49.7, "unit": "%"}, {"measurement": "Wound Width ±SD 72 h", "setting": "[1]", "result": 0, "unit": "mm"}, {"measurement": "Wound closure % 72 h", "setting": "[1]", "result": 100, "unit": "%"}, {"measurement": "Migration rate", "setting": "[1]", "result": 0.013}]}
{"smiles": "C=CCSc1nc(-c2ccc(Cl)cc2)cc(-c2ccc(OC)c(OC)c2)n1", "note": "[Compound 27, 2-(Allylthio)-4-(4-chlorophenyl)-6-(3,4-dimethoxyphenyl)pyrimidine]", "values": [{"measurement": "Wound Width ±SD 0 h", "setting": "[1]", "result": "1±0.02", "unit": "mm"}, {"measurement": "Wound Width ±SD 24 h", "setting": "[1]", "result": "0.88±0.03", "unit": "mm"}, {"measurement": "Wound closure % 24 h", "setting": "[1]", "result": 11.3, "unit": "%"}, {"measurement": "Wound Width ±SD 48 h", "setting": "[1]", "result": "0.66±0.03", "unit": "mm"}, {"measurement": "Wound closure % 48 h", "setting": "[1]", "result": 34, "unit": "%"}, {"measurement": "Wound Width ±SD 72 h", "setting": "[1]", "result": "0.2±0.18", "unit": "mm"}, {"measurement": "Wound closure % 72 h", "setting": "[1]", "result": 80, "unit": "%"}, {"measurement": "Migration rate", "setting": "[1]", "result": 0.011}]}
{"smiles": "COc1ccc(CSc2nc(-c3ccc(Cl)cc3)cc(-c3ccc(OC)c(OC)c3)n2)cc1", "note": "[Compound 29, 2-(4-Methoxybenzylthio)-4-(4-chlorophenyl)-6-(3,4-dimethoxyphenyl)pyrimidine]", "values": [{"measurement": "Bax Conc", "setting": "Bax", "result": "278 pg/mL and 278 ± 5 pg/mL"}, {"measurement": "Bax Fold change", "setting": "Bax; compared to untreated A-549 cancer cells", "result": 35, "unit": "fold"}, {"measurement": "Wound closure % 24 h", "setting": "A-549 cancer cells", "result": 11, "unit": "%"}, {"measurement": "Wound closure % 48 h", "setting": "A-549 cancer cells", "result": 34, "unit": "%"}, {"measurement": "Wound closure % 72 h", "setting": "A-549 cancer cells", "result": 80, "unit": "%"}]}
